Data: patent US20230272345A1, “SELF-ASSEMBLED CELL SHEET CONSTRUCTS AND METHODS OF MAKING THEREOF” (Caro Meats Inc., priority 2020, published 2023)

How the values were obtained:
C2C12 cells [1] = assay: Effect of Lat-B on cytoskeleton reorganization / morphology of C2C12 cells (brightfield microscopy); assay type: cell-based
Method: (§1) Difference in cytoskeleton reorganization of differentiated cells vs. undifferentiated ones was studied by treating cells with Latrunculin-B (Lat-B) (Abcam, ab144291). C2C12 cells grown in GM and the partially differentiated ones in DM were treated with 100 nM Lat-B in GM and DM, respectively, for 1 hr at D1 and microscopy was performed using inverted microscope in brightfield mode. Effect of cytoskeleton reorganization on detachment of the sheets was also studied by treating the cells with 50 and 100 nM of Lat-B in DM during the 24 hrs before delamination. Lat-B stock solution was prepared by dissolving 100 μg in 1 mL DMSO.

C2C12 cells [2] = assay: Effect of Lat-B treatment during the 24 hrs before delamination on detachment / sheet formation; assay type: cell-based
Method: In order to start the delamination process DM was replaced with acidic medium (medium A) (DM with 0.1% V/V acetic acid, final pH of ˜6) and samples were incubated for 5-10 min at 37° C. At this point that sheets started to delaminate the process was accelerated by gentle shaking of the well plate. Process could be accelerated by applying shear force using gentle pipetting of medium to the edges of the wells. Immediately after delamination was completed, medium A was replaced with basic medium (medium B, final pH of ˜8) (DM with 0.1% V/V 0.1 M sodium hydroxide in deionized water) in order to prevent samples from forming clumps. After 5 min of treatment with medium B, samples were transferred to neutral medium (medium N, pH of 7.4) (DM without any pH adjustment). In case of stacks, the required number of sheets, either 2 layers of cell sheets (double-layer constructs) or 4 layers (quadruple-layer constructs), were stacked on top of each other by simply dragging them using a tweezer and placing them on each other. This process was also performed in abundant amounts of medium B and after stacking was done, most of the media was aspirated to let the sheets settle down because of their weight for 5 more minutes and then extra medium N was added (FIG. 1B). Images of sheets were taken 1 hr after delamination/stacking and 24 hrs later using a stereomicroscope (Infinity Optical Systems). Diameter of the sheets was used using ImageJ at these time points to study effect of number of layers on shrinkage pattern of the constructs.
as §1

C2C12 cells [3] = details: 100 nM in DM, Nowak et al. 2009; cited from earlier work

C/C1=C/C(=O)O[C@@H]2C[C@@H](CC[C@H](C)/C=C\CC1)O[C@@](O)([C@@H]1CSC(=O)N1)C2 [Lat-B, Latrunculin-B]
Morphology after 24 hr of treatment (C2C12 cells [1]; 50 nM Lat-B in DM, 24 hr (D1 to D2)): slightly round | Morphology during the first few hours (C2C12 cells [1]; 50 nM Lat-B in DM, first few hours (data not shown)): did not show significant changes in their morphology | Morphology of partially differentiated cells (C2C12 cells [1]; 100 nM Lat-B in DM, 1 hr at D1, partially differentiated C2C12): changed very fast to round cells and eventually they formed clumps of cells | Morphology after 24 hrs of treatment (C2C12 cells [1]; 100 nM Lat-B in DM, 24 hrs (D1 to D2)): regained their stretched morphology after 24 hrs of treatment but were still rounder compared to untreated cells | Morphology of undifferentiated cells (C2C12 cells [1]; 100 nM Lat-B in GM, 1 hr at D1, undifferentiated C2C12): only became slightly round | Delamination / sheet formation (C2C12 cells [2]; 50 nM Lat-B in DM for 24 hrs before delamination): started to delaminate, but the sheets were fragile and broke to smaller pieces | Delamination / sheet formation (C2C12 cells [2]; 50 nM Lat-B in DM for 24 hrs before delamination, listed as Latrunculin-B): delaminated but were fragile | Delamination / sheet formation (C2C12 cells [2]; 100 nM Lat-B in DM for 24 hrs before delamination): did not form sheets at all | Delamination / sheet formation (C2C12 cells [2]; 100 nM Lat-B in DM for 24 hrs before delamination, listed as Latrunculin-B): did not form continuous sheets | Fusion of C2C12 cells (C2C12 cells [3]): would not fuse to each other
